Data taken from patent US12583826B2, “[(1,5-diphenyl-1H-1,2,4-triazol-3-yl)oxy]acetic acid derivatives and salts thereof, crop protection compositions comprising them, methods for producing them and use thereof as safeners” (Bayer Aktiengesellschaft, priority 2019, dated 2026).

Tests used:
[1] = system: summer wheat (TRZAS; cv. Triso); experiment: Relative action (efficacy code): reduction of damage by mesosulfuron-methyl on summer wheat; type: in vivo; set-up: key: 0: no reduction in damage (appearance corresponding to the herbicide control); 1: slight reduction in damage; 2: distinct reduction in damage; 3: significant reduction in damage; 4: complete reduction in damage (appearance corresponding to the untreated control); conditions: then mesosulfuron-methyl 40-60 g/ha, visual, 9-13 days after application
Method: 2.3 Relative Action of Selected Compounds of the Invention Using the Example of Reduction of Damage by Mesosulfuron-Methyl on Summer Wheat (TRZAS) The seeds of the crop plants to be treated are laid out in sandy loam in plastic pots (diameter ˜4 cm), covered with soil and grown in a greenhouse under good conditions for germination and growth. The trial plants were treated at the early leaf stage (BBCH10—BBCH12). In the course of this, the inventive compounds of the general formula (I) formulated in the form of wettable powders (WP) were sprayed onto the above-ground parts of the plants as an aqueous suspension with a water application rate corresponding to 800 l/ha with addition of wetting agent (e.g. 0.2% Genapol-LRO or 0.2% Mero) in the specified dose. This was followed by the application of the herbicide. For this purpose, mesosulfuron-methyl, formulated in the form of water-dispersible granules (WG), was sprayed onto the above-ground parts of the plants in the form of an aqueous dispersion with a water application rate corresponding to 800 l/ha with addition of wetting agent (e.g. 0.2% Genapol-LRO or 1 l/ha Biopower) in a dose of 40-60 g/ha. The dose of the herbicide was chosen here such that it causes visually apparent damage (min. 30%, max. 75%) compared to untreated crop plants at the evaluation time on a control group of crop plants without safener treatment that were included in the same trial. After application, the plants were cultivated under good growth conditions in a greenhouse. 9-13 days after application, the efficacy of the test compounds was assessed visually. For this purpose, the appearance of the plants treated with the test compound and herbicide was compared to the corresponding herbicide controls (without safener; with clearly visible damage) and the untreated controls (without damage). The damage-reducing effect of the test compounds was expressed here in graded efficacy codes according to the following scheme: • 0: no reduction in damage (appearance corresponding to the herbicide control) • 1: slight reduction in damage • 2: distinct reduction in damage • 3: significant reduction in damage • 4: complete reduction in damage (appearance corresponding to the untreated control) The trials show clear efficacy of the substances of the invention with regard to the reduction in damage to the summer wheat crop plant (TRZAS; cv. Triso) caused by the herbicide mesosulfuron-methyl: […]

[2] = system: summer barley (HORVS; cv. Montoya); experiment: Relative action (efficacy code): reduction of damage by mesosulfuron-methyl on summer barley; type: in vivo; set-up: key: 0: no reduction in damage (appearance corresponding to the herbicide control); 1: slight reduction in damage; 2: distinct reduction in damage; 3: significant reduction in damage; 4: complete reduction in damage (appearance corresponding to the untreated control); conditions: then mesosulfuron-methyl 40-60 g/ha, visual, 9-13 days after application
Method: 2.4 Relative Action of Selected Compounds of the Invention Using the Example of Reduction of Damage by Mesosulfuron-Methyl on Summer Barley (HORVS) The seeds of the crop plants to be treated are laid out in sandy loam in plastic pots (diameter ˜4 cm), covered with soil and grown in a greenhouse under good conditions for germination and growth. The trial plants were treated at the early leaf stage (BBCH10—BBCH12). In the course of this, the inventive compounds of the general formula (I) formulated in the form of wettable powders (WP) were sprayed onto the above-ground parts of the plants as an aqueous suspension with a water application rate corresponding to 800 l/ha with addition of wetting agent (e.g. 0.2% Genapol-LRO or 0.2% Mero) in the specified dose. This was followed by the application of the herbicide. For this purpose, mesosulfuron-methyl, formulated in the form of water-dispersible granules (WG), was sprayed onto the above-ground parts of the plants in the form of an aqueous dispersion with a water application rate corresponding to 800 l/ha with addition of wetting agent (e.g. 0.2% Genapol-LRC) or 1 l/ha Biopower) in a dose of 40-60 g/ha. The dose of the herbicide was chosen here such that it causes visually apparent damage (min. 30%, max. 75%) compared to untreated crop plants at the evaluation time on a control group of crop plants without safener treatment that were included in the same trial. After application, the plants were cultivated under good growth conditions in a greenhouse. 9-13 days after application, the efficacy of the test compounds was assessed visually. For this purpose, the appearance of the plants treated with the test compound and herbicide was compared to the corresponding herbicide controls (without safener; with clearly visible damage) and the untreated controls (without damage). The damage-reducing effect of the test compounds was expressed here separately for 2 repeats in graded efficacy codes according to the following scheme: • 0: no reduction in damage (appearance corresponding to the herbicide control) • 1: slight reduction in damage • 2: distinct reduction in damage • 3: significant reduction in damage • 4: complete reduction in damage (appearance corresponding to the untreated control) The trials show clear efficacy of the substances of the invention with regard to the reduction in damage to the summer barley crop plant (HORVS; cv. Montoya) caused by the herbicide mesosulfuron-methyl: […]

[3] = safener dose 100 (unit not given)
[4] = safener dose 500 (unit not given)

| Compound | Efficacy of the safener (efficacy code) [1, 3] | Efficacy of the safener (efficacy code) [1, 4] | Efficacy of the safener (efficacy code) ([2]; safener 100 g/ha) | Efficacy of the safener (efficacy code) ([2]; safener 500 g/ha) |
| --- | --- | --- | --- | --- |
| COC(=O)COc1nc(-c2ccc(F)cc2F)n(-c2ccc(Cl)cc2)n1 [I.40-7, Methyl {[1-(4-chlorophenyl)-5-(2,4-difluorophenyl)-1H-1,2,4-triazol-3-yl]oxy}acetate] | 4 | 4 | 2 | 4 |
| COC(=O)COc1nc(-c2ccc(F)cc2F)n(-c2ccc(Cl)cc2F)n1 [I.40-49] | 4 | 4 | 4 | 4 |
| COC(=O)CCOC(=O)COc1nc(-c2ccc(Cl)cc2Cl)n(-c2ccc(Cl)cc2F)n1 [I.61-49, Methyl 3-(2-{[1-(4-chloro-2-fluorophenyl)-5-(2,4-dichlorophenyl)-1H-1,2,4-triazol-3-yl]oxy}acetoxy)propanoate] | 2 | – | 2 | – |
| CCOC(=O)CCOC(=O)COc1nc(-c2ccc(F)cc2F)n(-c2ccc(Cl)cc2F)n1 [I.69-49] | 2 | – | 2 | – |
| O=C(O)COc1nc(-c2ccc(Cl)cc2F)n(-c2c(F)cccc2F)n1 [I.48-43] | – | 2 | – | 2 |
| CCCCOC(=O)COc1nc(-c2ccc(F)cc2F)n(-c2ccc(Cl)cc2F)n1 [I.66-49] | 2 | – | 2 | – |
| COCCOC(=O)COc1nc(-c2ccc(F)cc2F)n(-c2ccc(F)cc2Cl)n1 [I.67-48] | 2 | – | 2 | – |
